Experimental data: ChEMBL document CHEMBL5137093, “Improving Drug Delivery While Tailoring Prodrug Activation to Modulate Cmax and Cmin by Optimization of (Carbonyl)oxyalkyl Linker-Based Prodrugs of Atazanavir” (J Med Chem, 2022)
≈ marks a conversion by molar mass, not a printed value.

What was measured:
[1] = AUClast in Sprague-Dawley rat at 3 ml/kg,po measured upto 24 hrs by UPLC-MS/MS analysis; assay type: ADME; design: time < 24 hrs, dose 3 ml/kg, route po; details: in vivo; for AUClast: 24 h
[2] = Relative Cmax ratio of Atazanavir in Sprague-Dawley rat at 3 ml/kg,po measured upto 24 hrs by UPLC-MS/MS analysis; assay type: ADME; details: in vivo
[3] = Aqueous stability of the compound in phosphate buffer at pH 6.5 assessed as compound half life measured after 24 hrs by UPLC analysis; assay type: physicochemical; details: for t1/2: buffer, pH 6.5, 24 h, 24 h; for half-life: phosphate buffer, pH 6.5
[4] = Tmax in Sprague-Dawley rat at 3 ml/kg,po measured upto 24 hrs by UPLC-MS/MS analysis; assay type: ADME; details: in vivo
[5] = Aqueous stability of the compound in HCL at pH 1 assessed as compound half life measured after 24 hrs by UPLC analysis; assay type: physicochemical; details: for half-life: aqueous HCl, pH 1
[6] = Aqueous solubility of compound at pH 6.5 by UPLC analysis; assay type: physicochemical
[7] = Aqueous solubility of compound at pH 1 by UPLC analysis; assay type: physicochemical
[8] = Aqueous solubility of compound at pH 4 by UPLC analysis; assay type: physicochemical
[9] = Fold ratio of total AUC of Atazanavir in Sprague-Dawley rat at 3 ml/kg,po measured upto 24 hrs by UPLC-MS/MS analysis; assay type: ADME; details: in vivo
[10] = Relative AUC ratio of Atazanavir in Sprague-Dawley rat at 3 ml/kg,po measured upto 24 hrs by UPLC-MS/MS analysis; assay type: ADME; details: in vivo
[11] = Ratio of AUC of Atazanavir in Sprague-Dawley rat at 3 ml/kg,po measured upto 24 hrs by UPLC-MS/MS analysis; assay type: ADME; details: in vivo
[12] = Ratio of Cmax/Cmin of Atazanavir in Sprague-Dawley rat at 3 ml/kg,po measured after 24 hrs by UPLC-MS/MS analysis; assay type: ADME; details: in vivo
[13] = Aqueous stability of the compound in acetate buffer at pH 4 assessed as compound half life measured after 24 hrs by UPLC analysis; assay type: physicochemical; details: for half-life: acetate buffer, pH 4; for t1/2: buffer, pH 4, 24 h, 24 h
[14] = Cmax in Sprague-Dawley rat at 3 ml/kg,po measured upto 24 hrs by UPLC-MS/MS analysis; assay type: ADME; design: dose 3 ml/kg, time < 24 hrs, route po; details: in vivo
[15] = Tmax in Sprague-Dawley rat at 30 ml/kg,po measured upto 24 hrs by UPLC-MS/MS analysis; assay type: ADME; details: in vivo
[16] = Ratio of AUC of Atazanavir in Sprague-Dawley rat at 30 ml/kg,po measured upto 24 hrs by UPLC-MS/MS analysis; assay type: ADME; details: in vivo
[17] = Relative Cmax ratio of Atazanavir in Sprague-Dawley rat at 30 ml/kg,po measured upto 24 hrs by UPLC-MS/MS analysis; assay type: ADME; details: in vivo
[18] = Fold ratio of total AUC of Atazanavir in Sprague-Dawley rat at 30 ml/kg,po measured upto 24 hrs by UPLC-MS/MS analysis; assay type: ADME; details: in vivo
[19] = Relative AUC ratio of Atazanavir in Sprague-Dawley rat at 30 ml/kg,po measured upto 24 hrs by UPLC-MS/MS analysis; assay type: ADME; details: in vivo
[20] = AUClast in Sprague-Dawley rat at 30 ml/kg,po measured upto 24 hrs by UPLC-MS/MS analysis; assay type: ADME; design: time < 24 hrs, dose 30 ml/kg, route po; details: in vivo
[21] = Ratio of Cmax/Cmin of Atazanavir in Sprague-Dawley rat at 30 ml/kg,po measured after 24 hrs by UPLC-MS/MS analysis; assay type: ADME; details: in vivo
[22] = Cmax in Sprague-Dawley rat at 30 ml/kg,po measured upto 24 hrs by UPLC-MS/MS analysis; assay type: ADME; design: time < 24 hrs, dose 30 ml/kg, route po; details: in vivo
[23] = aqueous medium, read-out: solubility

Row | Compound | AUClast [1] [µM·h] | Ratio [2] | t1/2 [3] [h] | Tmax ([4]; Sprague-Dawley, read-out: Tmax) [h] | half-life [5] [h] | solubility [7, 23] [µg/mL] | solubility [8, 23] [µg/mL] | Ratio [9] | Ratio [10] | Ratio [11] | Ratio [12] | half-life [13] [h] | Cmax ([14]; 24 h) [nM] | half-life [3] [h] | solubility ([6]; buffer) [µg/mL] | solubility ([7]; buffer) [µg/mL] | solubility ([8]; buffer) [µg/mL] | further results
1 | COC(=O)N[C@H](C(=O)N[C@@H](Cc1ccccc1)[C@H](CN(Cc1ccc(-c2ccccn2)cc1)NC(=O)[C@@H](NC(=O)OC)C(C)(C)C)OC(=O)OC(OC(=O)[C@@H](N)C(C)C)C(C)(C)C)C(C)(C)C (mixture of isomers) | 1.057 | 5.8 | 65.4 | 0.4 | > 500 | > 800 | > 870 | 13.2 | 10.4 | 0.26 | 235.5 | > 500 | 670 | – | – | – | – | solubility [6, 23]: < 1 µg/mL
2 | COC(=O)N[C@H](C(=O)N[C@@H](Cc1ccccc1)[C@H](CN(Cc1ccc(-c2ccccn2)cc1)NC(=O)[C@@H](NC(=O)OC)C(C)(C)C)OC(=O)OC(OC(=O)[C@@H](N)Cc1ccccc1)C(C)C)C(C)(C)C (stereo in doubt; 3v) | – | 0.5 | – | – | 334 | > 1520 | > 840 | 0.3 | 0.3 | 0 | – | 100 | – | 10.7 | < 1 | – | – | –
3 | COC(=O)N[C@H](C(=O)N[C@@H](Cc1ccccc1)[C@H](CN(Cc1ccc(-c2ccccn2)cc1)NC(=O)[C@@H](NC(=O)OC)C(C)(C)C)OC(=O)OC(OC(=O)[C@@H](N)Cc1ccccc1)C(C)C)C(C)(C)C (stereo in doubt; 3w) | – | 7.8 | 12.7 | 0.3 | – | – | – | 3.8 | 3.7 | 0.01 | – | – | – | – | > 890 | > 1670 | > 1630 | AUC(0-t) at 24 h ([1]; Sprague-Dawley, 3 ml/kg): 0.018 µM·h; t1/2 ([5]; buffer, pH 1, 24 h): 334.3 h; t1/2 [13]: 158.4 h; Cmax ([14]; Sprague-Dawley, 3 ml/kg): 50 nM
4 | COC(=O)N[C@H](C(=O)N[C@@H](Cc1ccccc1)[C@H](CN(Cc1ccc(-c2ccccn2)cc1)NC(=O)[C@@H](NC(=O)OC)C(C)(C)C)OC(=O)OC(OC(=O)C1(N)CC1)C(C)C)C(C)(C)C (stereo in doubt; 3x) | 1.313 | 1.4 | – | 0.3 | > 500 | > 1200 | – | 5.1 | 1.7 | 2.07 | – | > 500 | – | > 500 | < 1.5 | – | > 950 | Cmax ([14]; Sprague-Dawley, 3 ml/kg): 1260 nM
5 | COC(=O)N[C@H](C(=O)N[C@@H](Cc1ccccc1)[C@H](CN(Cc1ccc(-c2ccccn2)cc1)NC(=O)[C@@H](NC(=O)OC)C(C)(C)C)OC(=O)OC(OC(=O)C1(N)CC1)C(C)C)C(C)(C)C (stereo in doubt; 3y) | 4.874 | 2.1 | – | – | – | – | – | 22.2 | 9.5 | 1.34 | 31.8 | – | 835 | – | 28 (≈ 31 µM) | > 1800 | > 2100 | Tmax ([4]; po, 24 h): 0.4 h
6 | COC(=O)N[C@H](C(=O)N[C@@H](Cc1ccccc1)[C@H](CN(Cc1ccc(-c2ccccn2)cc1)NC(=O)[C@@H](NC(=O)OC)C(C)(C)C)OC(=O)OC(OC(=O)[C@@H](N)C(C)C)C1CCCCC1)C(C)(C)C (stereo in doubt; 4n) | 1.454 | 1.3 | 27.4 | 0.5 | > 500 | > 1300 | > 1400 | 5.3 | 1.5 | 2.47 | – | 334 | 991 | – | – | – | – | solubility [6, 23]: < 1 µg/mL
7 | COC(=O)N[C@H](C(=O)N[C@@H](Cc1ccccc1)[C@H](CN(Cc1ccc(-c2ccccn2)cc1)NC(=O)[C@@H](NC(=O)OC)C(C)(C)C)OC(=O)OC(OC(=O)[C@H](C(C)C)N(C)C)C(C)C)C(C)(C)C (stereo in doubt; 5g) | 0.996 | 2.1 | – | 0.7 | > 500 | – | 140 (≈ 148 µM) | 7 | 4.4 | 0.59 | 194.1 | > 500 | 382 | > 500 | – | > 420 | – | solubility [6, 23]: < 1 µg/mL

The next lines start with results.

Row | AUClast [1] [µM·h] | Ratio [2] | t1/2 [3] [h] | Tmax ([4]; Sprague-Dawley, read-out: Tmax) [h] | half-life [5] [h] | solubility [7, 23] [µg/mL] | solubility [8, 23] [µg/mL] | Ratio [9] | Ratio [10] | Ratio [11] | Ratio [12] | half-life [13] [h] | Cmax ([14]; 24 h) [nM] | half-life [3] [h] | solubility ([6]; buffer) [µg/mL] | solubility ([7]; buffer) [µg/mL] | solubility ([8]; buffer) [µg/mL] | Compound | further results
8 | 11.628 | 2.7 | 334.3 | – | – | – | – | 42.1 | 11.8 | 2.57 | 22.7 | – | 1880 | – | – | > 1850 | 160 (≈ 169 µM) | COC(=O)N[C@H](C(=O)N[C@@H](Cc1ccccc1)[C@H](CN(Cc1ccc(-c2ccccn2)cc1)NC(=O)[C@@H](NC(=O)OC)C(C)(C)C)OC(=O)OC(OC(=O)[C@H](C(C)C)N(C)C)C(C)C)C(C)(C)C (stereo in doubt; 5h) | Tmax [15]: 3 h; Ratio [16]: 10.81; Tmax ([4]; po, 24 h): 0.5 h; Ratio [17]: 0.14; Ratio [18]: 3.38; Ratio [19]: 0.29; AUC(0-t) at 24 h [20]: 64.6 µM·h; t1/2 [13]: 376.3 h; Ratio [21]: 10.8; Cmax [22]: 3580 nM
9 | 0.015 | 5.3 | – | 0.4 | > 500 | > 1300 | > 1800 | 5.6 | 5.6 | 0.01 | 389.4 | 376 | 19 | 16.3 | – | – | – | COC(=O)N[C@H](C(=O)N[C@@H](Cc1ccccc1)[C@H](CN(Cc1ccc(-c2ccccn2)cc1)NC(=O)[C@@H](NC(=O)OC)C(C)(C)C)OC(=O)OC(OC(=O)[C@H](N)C(C)C)C(C)C)C(C)(C)C (stereo in doubt; 5i) | –
10 | 0.0005 | 3.3 | – | 0.3 | > 500 | > 1600 | > 1100 | 3.3 | 3.3 | 0.0004 | 2936.7 | > 500 | 3 | 167 | 76 (≈ 74.6 µM) | – | – | COC(=O)N[C@H](C(=O)N[C@@H](Cc1ccccc1)[C@H](CN(Cc1ccc(-c2ccccn2)cc1)NC(=O)[C@@H](NC(=O)OC)C(C)(C)C)OC(=O)OC(OC(=O)[C@@H](NC(=O)[C@@H](N)C(C)C)C(C)C)C(C)C)C(C)(C)C (stereo in doubt; 6e) | –
11 | 0.208 | 2.7 | 94 | – | – | – | – | 4.2 | 3.7 | 0.15 | 1414 | – | 235 | – | 8 (≈ 7.85 µM) | > 1000 | > 1400 | COC(=O)N[C@H](C(=O)N[C@@H](Cc1ccccc1)[C@H](CN(Cc1ccc(-c2ccccn2)cc1)NC(=O)[C@@H](NC(=O)OC)C(C)(C)C)OC(=O)OC(OC(=O)[C@@H](NC(=O)[C@@H](N)C(C)C)C(C)C)C(C)C)C(C)(C)C (stereo in doubt; 6f) | t1/2 [13]: 376.3 h
